Earlier results on one molecule are cited in patent US20240285773A1, “METHODS OF TREATING MYELODYSPLASTIC SYNDROME AND MONITORING THE TREATMENT” (Geron Corporation, priority 2023, published 2024).

The data set concerns patients with del(5q) MDS. The conditions noted are these: cited from earlier work.

With `Nc1cccc2c1CN(C1CCC(=O)NC1=O)C2=O` (stereo not shown) [lenalidomide, 3-(4-Amino-1-oxoisoindolin-2-yl)piperidine-2,6-dione], the “Transfusion independence, proportion of patients” value is reported as “two-thirds”.
